According to article PMC11233931, “Remodeling tumor‐associated macrophage for anti‐cancer effects by rational design of irreversible inhibition of mitogen‐activated protein kinase‐activated protein kinase 2” (MedComm, 2024):

Assays:
Experiment in all cases: Eurofins kinase selectivity profile against 380 other human recombinant kinases (Table S2)
Assay type in all cases: biochemical
[1] = molecular target: T1, 380 human recombinant protein kinases (Homo sapiens, UniProt P00519, H396P); conditions: Abl (H396P) (h), read-out: Inhibition rate
T1 construct: purchased Eurofins (Celle Lévescault)
How it was run: (§1)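 To gauge specificity for MK2, the compound is profiled externally at various concentrations on recombinant human kinases, 380 in total.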

[2] = molecular target: T2, 380 human recombinant protein kinases (Homo sapiens, UniProt Q00526); conditions: CDK3/cyclinE(h), read-out: Inhibition rate
T2 construct: purchased Eurofins (Celle Lévescault)
T2 sequence (Q00526 whole entry): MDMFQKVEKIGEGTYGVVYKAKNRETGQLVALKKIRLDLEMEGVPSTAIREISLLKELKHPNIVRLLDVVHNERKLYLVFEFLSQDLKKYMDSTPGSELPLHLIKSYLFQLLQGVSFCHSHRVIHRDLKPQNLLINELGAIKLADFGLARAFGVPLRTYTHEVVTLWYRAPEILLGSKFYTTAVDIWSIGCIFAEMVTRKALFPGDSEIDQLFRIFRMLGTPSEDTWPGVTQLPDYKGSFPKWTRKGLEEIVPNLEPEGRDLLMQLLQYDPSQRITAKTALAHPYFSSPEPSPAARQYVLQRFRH
How it was run: as §1

[3] = test system: 380 human recombinant protein kinases
How it was run: as §1

[4] = molecular target: T3, 380 human recombinant protein kinases (Homo sapiens, UniProt O60331); conditions: PIP5K1γ(h), read-out: Inhibition rate (%)
T3 construct: purchased Eurofins (Celle Lévescault)
T3 sequence (O60331 whole entry): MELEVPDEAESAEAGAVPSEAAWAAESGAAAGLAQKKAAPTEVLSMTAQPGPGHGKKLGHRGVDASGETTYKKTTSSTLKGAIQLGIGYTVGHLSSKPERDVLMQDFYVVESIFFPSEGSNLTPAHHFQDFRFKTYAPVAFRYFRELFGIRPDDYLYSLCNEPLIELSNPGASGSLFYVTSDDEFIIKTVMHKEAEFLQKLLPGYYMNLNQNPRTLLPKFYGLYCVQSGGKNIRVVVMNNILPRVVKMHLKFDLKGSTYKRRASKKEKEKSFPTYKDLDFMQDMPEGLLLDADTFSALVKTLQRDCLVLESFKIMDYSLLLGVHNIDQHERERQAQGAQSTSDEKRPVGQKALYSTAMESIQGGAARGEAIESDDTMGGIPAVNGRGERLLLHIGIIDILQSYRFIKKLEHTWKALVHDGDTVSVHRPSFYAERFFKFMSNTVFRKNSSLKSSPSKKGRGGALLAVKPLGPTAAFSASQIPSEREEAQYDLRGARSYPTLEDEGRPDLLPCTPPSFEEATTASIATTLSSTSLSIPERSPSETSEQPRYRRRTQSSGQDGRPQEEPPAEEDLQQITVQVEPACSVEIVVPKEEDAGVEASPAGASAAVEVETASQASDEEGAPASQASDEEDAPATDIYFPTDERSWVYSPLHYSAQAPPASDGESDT
How it was run: as §1

[5] = molecular target: T4, 380 human recombinant protein kinases (Homo sapiens, UniProt P49761); conditions: CLK3(h), read-out: Inhibition rate
T4 construct: purchased Eurofins (Celle Lévescault)
T4 sequence (P49761 whole entry): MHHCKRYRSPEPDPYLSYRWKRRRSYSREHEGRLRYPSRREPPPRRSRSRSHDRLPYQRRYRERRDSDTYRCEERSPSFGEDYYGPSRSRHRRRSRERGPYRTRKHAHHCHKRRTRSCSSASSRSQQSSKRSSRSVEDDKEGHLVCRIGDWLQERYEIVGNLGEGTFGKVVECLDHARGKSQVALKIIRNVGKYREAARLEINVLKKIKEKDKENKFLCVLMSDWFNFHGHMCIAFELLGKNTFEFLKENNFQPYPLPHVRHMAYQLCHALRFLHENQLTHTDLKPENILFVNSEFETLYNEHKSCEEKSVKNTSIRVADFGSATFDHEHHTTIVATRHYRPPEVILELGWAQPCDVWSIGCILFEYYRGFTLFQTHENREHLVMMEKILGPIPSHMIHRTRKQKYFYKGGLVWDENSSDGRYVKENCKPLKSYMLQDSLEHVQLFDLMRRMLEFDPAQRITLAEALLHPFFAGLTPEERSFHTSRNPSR
How it was run: as §1

[6] = molecular target: T5, 380 human recombinant protein kinases (Homo sapiens, UniProt O75716); conditions: STK16(h), read-out: Inhibition rate (%)
T5 construct: purchased Eurofins (Celle Lévescault)
T5 sequence (O75716 whole entry): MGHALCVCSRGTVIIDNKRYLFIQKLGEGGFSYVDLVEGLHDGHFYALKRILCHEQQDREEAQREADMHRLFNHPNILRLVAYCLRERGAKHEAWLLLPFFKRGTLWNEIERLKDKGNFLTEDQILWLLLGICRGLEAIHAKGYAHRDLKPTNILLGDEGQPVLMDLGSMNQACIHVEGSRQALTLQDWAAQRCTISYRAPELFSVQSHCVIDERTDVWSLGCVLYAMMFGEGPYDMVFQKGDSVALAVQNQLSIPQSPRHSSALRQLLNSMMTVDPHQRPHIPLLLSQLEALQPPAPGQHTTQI
How it was run: as §1

[7] = molecular target: T6, 380 human recombinant protein kinases (Homo sapiens, UniProt Q14164); conditions: IKKε(h), read-out: Inhibition rate
T6 construct: purchased Eurofins (Celle Lévescault)
T6 sequence (Q14164 1-716): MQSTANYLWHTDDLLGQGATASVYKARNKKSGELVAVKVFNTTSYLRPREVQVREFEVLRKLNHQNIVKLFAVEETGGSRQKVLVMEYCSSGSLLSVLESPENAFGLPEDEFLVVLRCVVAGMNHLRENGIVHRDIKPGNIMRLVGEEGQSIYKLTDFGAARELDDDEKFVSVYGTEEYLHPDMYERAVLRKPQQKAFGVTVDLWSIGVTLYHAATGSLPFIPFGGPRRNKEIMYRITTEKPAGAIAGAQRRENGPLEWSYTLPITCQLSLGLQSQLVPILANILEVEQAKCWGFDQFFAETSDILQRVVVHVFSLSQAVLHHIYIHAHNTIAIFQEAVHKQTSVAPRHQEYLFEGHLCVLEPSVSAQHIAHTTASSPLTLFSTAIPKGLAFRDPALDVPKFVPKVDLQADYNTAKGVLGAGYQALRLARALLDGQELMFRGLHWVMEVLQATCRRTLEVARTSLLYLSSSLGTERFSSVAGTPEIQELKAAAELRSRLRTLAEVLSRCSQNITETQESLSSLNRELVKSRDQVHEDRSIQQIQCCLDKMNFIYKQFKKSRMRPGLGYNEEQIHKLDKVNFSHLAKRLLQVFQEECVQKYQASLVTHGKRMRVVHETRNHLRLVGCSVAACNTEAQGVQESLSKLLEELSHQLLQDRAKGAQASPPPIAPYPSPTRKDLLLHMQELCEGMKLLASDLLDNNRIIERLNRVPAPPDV
How it was run: as §1

[8] = molecular target: T7, 380 human recombinant protein kinases (Homo sapiens, UniProt Q8WU08); conditions: STK32A(h), read-out: Inhibition rate (%)
T7 construct: purchased Eurofins (Celle Lévescault)
T7 sequence (Q8WU08 whole entry): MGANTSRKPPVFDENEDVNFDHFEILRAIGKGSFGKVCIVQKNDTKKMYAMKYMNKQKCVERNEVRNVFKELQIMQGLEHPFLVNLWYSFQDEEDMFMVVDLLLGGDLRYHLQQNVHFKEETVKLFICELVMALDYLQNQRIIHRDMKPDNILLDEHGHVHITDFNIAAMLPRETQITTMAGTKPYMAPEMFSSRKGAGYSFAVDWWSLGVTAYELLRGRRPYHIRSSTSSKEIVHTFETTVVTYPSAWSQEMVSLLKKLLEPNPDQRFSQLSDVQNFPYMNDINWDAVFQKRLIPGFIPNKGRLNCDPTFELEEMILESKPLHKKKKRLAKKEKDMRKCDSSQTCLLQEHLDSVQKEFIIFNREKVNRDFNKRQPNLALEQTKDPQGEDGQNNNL
How it was run: as §1

[9] = molecular target: T8, 380 human recombinant protein kinases (Homo sapiens, UniProt Q07912); conditions: ACK1(h), read-out: Inhibition rate
T8 construct: purchased Eurofins (Celle Lévescault)
T8 sequence (Q07912 whole entry): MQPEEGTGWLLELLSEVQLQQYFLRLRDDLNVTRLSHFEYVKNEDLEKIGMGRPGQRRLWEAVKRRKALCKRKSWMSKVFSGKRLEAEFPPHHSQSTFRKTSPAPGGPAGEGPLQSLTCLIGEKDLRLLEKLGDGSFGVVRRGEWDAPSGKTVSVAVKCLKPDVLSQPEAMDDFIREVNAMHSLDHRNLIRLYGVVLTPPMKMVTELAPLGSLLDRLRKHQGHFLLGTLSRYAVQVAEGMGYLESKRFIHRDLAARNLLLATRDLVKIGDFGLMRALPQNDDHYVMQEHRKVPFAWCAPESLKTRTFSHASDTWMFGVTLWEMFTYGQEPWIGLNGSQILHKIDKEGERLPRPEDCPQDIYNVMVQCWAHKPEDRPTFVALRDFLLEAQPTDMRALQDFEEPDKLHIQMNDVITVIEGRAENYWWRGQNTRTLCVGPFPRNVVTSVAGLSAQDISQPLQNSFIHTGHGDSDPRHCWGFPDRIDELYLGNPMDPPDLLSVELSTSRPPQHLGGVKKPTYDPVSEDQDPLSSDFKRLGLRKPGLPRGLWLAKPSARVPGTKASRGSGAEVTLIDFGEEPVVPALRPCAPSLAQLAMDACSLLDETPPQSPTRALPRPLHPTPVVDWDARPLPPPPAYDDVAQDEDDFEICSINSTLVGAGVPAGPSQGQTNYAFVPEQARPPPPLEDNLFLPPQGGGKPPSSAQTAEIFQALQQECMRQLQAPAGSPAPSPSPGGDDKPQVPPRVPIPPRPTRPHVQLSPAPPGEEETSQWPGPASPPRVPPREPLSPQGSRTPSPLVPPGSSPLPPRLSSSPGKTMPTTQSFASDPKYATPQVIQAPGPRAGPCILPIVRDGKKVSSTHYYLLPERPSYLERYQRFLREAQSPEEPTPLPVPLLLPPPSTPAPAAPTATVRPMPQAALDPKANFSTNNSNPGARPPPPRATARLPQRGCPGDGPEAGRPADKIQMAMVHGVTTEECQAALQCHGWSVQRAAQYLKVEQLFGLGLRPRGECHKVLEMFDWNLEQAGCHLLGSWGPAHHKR
How it was run: as §1

[10] = molecular target: T9, 380 human recombinant protein kinases (Homo sapiens, UniProt O75582); conditions: MSK1(h), read-out: Inhibition rate
T9 construct: purchased Eurofins (Celle Lévescault)
T9 sequence (O75582 whole entry): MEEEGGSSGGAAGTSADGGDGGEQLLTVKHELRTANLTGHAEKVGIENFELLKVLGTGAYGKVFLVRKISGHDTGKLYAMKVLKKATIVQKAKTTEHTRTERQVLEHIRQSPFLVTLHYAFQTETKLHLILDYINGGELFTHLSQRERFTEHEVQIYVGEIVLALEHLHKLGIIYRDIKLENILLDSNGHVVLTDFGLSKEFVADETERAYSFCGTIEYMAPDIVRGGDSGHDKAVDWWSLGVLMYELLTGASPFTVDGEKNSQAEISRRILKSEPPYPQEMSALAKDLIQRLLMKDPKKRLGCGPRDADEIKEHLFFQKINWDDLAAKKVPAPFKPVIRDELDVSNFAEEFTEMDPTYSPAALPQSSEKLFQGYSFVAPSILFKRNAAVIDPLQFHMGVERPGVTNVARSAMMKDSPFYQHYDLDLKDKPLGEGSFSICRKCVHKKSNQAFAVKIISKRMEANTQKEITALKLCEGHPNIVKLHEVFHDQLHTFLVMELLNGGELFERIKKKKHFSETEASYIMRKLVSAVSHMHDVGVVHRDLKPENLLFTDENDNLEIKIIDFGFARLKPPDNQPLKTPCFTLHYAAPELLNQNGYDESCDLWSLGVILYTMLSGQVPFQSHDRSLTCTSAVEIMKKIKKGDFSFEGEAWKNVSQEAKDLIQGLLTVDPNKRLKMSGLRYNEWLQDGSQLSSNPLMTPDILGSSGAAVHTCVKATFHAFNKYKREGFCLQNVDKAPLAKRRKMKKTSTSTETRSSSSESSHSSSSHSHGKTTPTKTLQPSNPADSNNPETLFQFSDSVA
How it was run: as §1

With `C=CC(=O)Nc1cc(-c2cc(-c3cc4c([nH]3)CCNC4=O)ccn2)ccc1OC(F)(F)F` [compound 11] the inhibition at 0.01 µM ([1]; 10 nM) was 6%, the inhibition at 0.1 µM ([1]; 100 nM) was 3% and the inhibition at 1 µM ([1]; 1000 nM) was 1%. It also gave an inhibition at 0.01 µM ([2]; 10 nM) of -5%, an inhibition at 0.1 µM ([2]; 100 nM) of -1% and an inhibition at 1 µM ([2]; 1000 nM) of 0%. The “inhibitory rate on the other 380 kinases tested” value ([3]; 10 nM, all 380 kinases) was “less than 50%”, the “selectivity for MK2 over the other tested kinases” value ([3]; 91.8% of total tested kinases) was “more than 434 fold” and the Inhibition rate ([3]; ACTR2(h), 10 nM) was -9%. For the same compound, the Inhibition rate ([3]; ACTR2(h), 100 nM) was -11%, the Inhibition rate ([3]; ACTR2(h), 1000 nM) was -8% and the Inhibition rate ([3]; MAPK1(h), 10 nM) was -1%. It also gave an Inhibition rate ([3]; MAPK1(h), 100 nM) of 0%, an Inhibition rate ([3]; MAPK1(h), 1000 nM) of 7% and an Inhibition rate ([3]; PKCβII(h), 10 nM) of -1%. It also gave an Inhibition rate ([3]; PKCβII(h), 100 nM) of 4%, an Inhibition rate ([3]; PKCβII(h), 1000 nM) of 6% and an Inhibition rate ([3]; PKG1β(h), 10 nM) of 7%. It also gave an Inhibition rate ([3]; PKG1β(h), 100 nM) of 10%, an Inhibition rate ([3]; PKG1β(h), 1000 nM) of 5% and an inhibition at 0.01 µM ([4]; 10 nM) of 0%. The inhibition at 0.1 µM ([4]; 100 nM) was -1%, the inhibition at 1 µM ([4]; 1000 nM) was 3% and the inhibition at 0.01 µM ([5]; 10 nM) was -3%. The inhibition at 0.1 µM ([5]; 100 nM) was 3%, the inhibition at 1 µM ([5]; 1000 nM) was 10% and the inhibition at 0.01 µM ([6]; 10 nM) was 0%. The inhibition at 0.1 µM ([6]; 100 nM) was -3%, the inhibition at 1 µM ([6]; 1000 nM) was 11% and the inhibition at 0.01 µM ([7]; 10 nM) was -2%. It also gave an inhibition at 0.1 µM ([7]; 100 nM) of -1%, an inhibition at 1 µM ([7]; 1000 nM) of 5% and an inhibition at 0.01 µM ([8]; 10 nM) of 3%. For the same compound, the inhibition at 0.1 µM ([8]; 100 nM) was 10%, the inhibition at 1 µM ([8]; 1000 nM) was 7% and the inhibition at 0.01 µM ([9]; 10 nM) was 1%. It also gave an inhibition at 0.1 µM ([9]; 100 nM) of 2%, an inhibition at 1 µM ([9]; 1000 nM) of 3% and an inhibition at 0.01 µM ([10]; 10 nM) of -11%. The inhibition at 0.1 µM ([10]; 100 nM) was -12% and the inhibition at 1 µM ([10]; 1000 nM) was -11%.
